Results published in patent US20160137630A1, “INDUCTION OF GATA2 BY HDAC1 AND HDAC2 INHIBITORS” (ACETYLON PHARMACEUTICALS, INC., priority 2014, published 2016).
pIC50: −log10 of the molar value. Read-outs that look alike come from different tables or passages of the source.

Legend:
[1] = pharmacokinetics of Compound 001 in cynomolgus monkeys; assay type: in vivo; conditions: cynomolgus monkey, plasma, read-out: minimum drug exposure for the entire dosing period
Method: (§1) B. Cynomolgus monkey were dosed once daily by oral gavage for 5 consecutive days at 0 mg/kg, 25 mg/kg, or 75 mg/kg per dose (FIG. 25B). Sampling as described in ‘A’.
C. […] Points are the average of replicate animals, error bars are the standard deviation of replicate animals (FIG. 25C).

[2] = blood cell counts in monkeys; assay type: in vivo, cynomolgus monkey; conditions: monkey
Method: as §1
For each individual monkey, white blood cell counts were expressed relative to their predose level (time=day 0). Points are the average of n=3 animals with error bars showing the standard deviation.

HbG mRNA [3] = test: % HbG mRNA induction in 2-phase culture systems CS1 and CS2; assay type: cell-based, human
From the text: Then, the cells were differentiated by exposure to either vehicle (control) or Compound 001. RNA samples of HbG were taken at days 0, 3, 5, and 8. […] Staining cells with a FITC-conjugated anti-HbF antibody and flow cytometry was used to measure induction of fetal hemoglobin.

[4] = system: human bone marrow-derived CD34+ cells; test: viability of expanded CD34+ cells; assay type: cell-based; conditions: 2 days of treatment
From the text: This possibility was first tested by measuring the viability of expanded human bone marrow-derived CD34+ cells, composed of primitive and more differentiated hematopoietic progenitors of multiple lineages, following 2 days of treatment with compound.

[5] = blood cell counts in rats; assay type: in vivo; conditions: rat
Method: I. A. Rats were dosed once daily by oral gavage for 6 consecutive days at 0 mg/kg, 10 mg/kg, or 30 mg/kg per dose (See FIG. 25A). Dosing days are indicated by a down arrow (FIG. 25A). Peripheral blood was drawn on the indicated days and analyzed for drug level in plasma (PK), complete blood counts (CBC), or isolation of total ribonucleic acid (RNA). […] For each individual rat, white blood cell counts were expressed relative to their predose level (time=day 0). Points are the average of n=4 animals with error bars showing the standard deviation.

[6] = system: Human CD34+ bone marrow cells; test: erythroid maturation in CS1 by CD71/GlyA flow cytometry; assay type: cell-based; conditions: 1 μM
From the text: To investigate the effects of HDAC inhibition on later stages of erythroid maturation, differentiation in CS1 was followed by flow cytometry using fluorescent antibodies against the transferrin receptor (CD71) and glycophorin A (GlyA). […] The majority of vehicle control cells continued to differentiate, becoming CD71^posGlyA^pos by day 8. […] CD71^posGlyA^mid cells are equivalent to proerythroblasts (ProE), while CD71^posGlyA^pos cells include the more differentiated basophilic and polychromatic erythroblasts.

sickle donor cells = test: HbG induction in sickle donor cells; assay type: cell-based; conditions: peripheral blood mononuclear cells from four different donors; FIG. 11B
From the text: Then, the cells from each donor were differentiated by exposure to either vehicle (control) or Compound 001. RNA samples of HbG were taken from each group of donor cells at days 0, 3, and 5.

HDAC1 = HDAC1 (Homo sapiens, UniProt Q13547); test: in vitro biochemical HDAC inhibition assay
Chain of HDAC1 (Q13547 whole entry): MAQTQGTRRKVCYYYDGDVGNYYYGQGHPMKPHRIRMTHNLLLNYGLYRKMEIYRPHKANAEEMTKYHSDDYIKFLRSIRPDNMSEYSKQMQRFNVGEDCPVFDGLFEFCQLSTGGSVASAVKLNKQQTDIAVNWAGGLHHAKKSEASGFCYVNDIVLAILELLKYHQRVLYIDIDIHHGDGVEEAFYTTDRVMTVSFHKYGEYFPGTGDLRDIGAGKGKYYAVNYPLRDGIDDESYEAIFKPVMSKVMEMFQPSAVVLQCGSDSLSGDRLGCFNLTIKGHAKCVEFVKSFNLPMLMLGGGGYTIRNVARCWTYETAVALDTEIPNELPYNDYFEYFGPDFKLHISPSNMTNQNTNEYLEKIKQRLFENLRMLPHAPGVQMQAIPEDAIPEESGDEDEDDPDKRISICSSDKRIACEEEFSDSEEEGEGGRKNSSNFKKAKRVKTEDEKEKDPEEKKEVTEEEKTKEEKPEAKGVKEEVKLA

[7] = system: histone acetylation (H3K9/14ac, H3K56ac, H3K79ac, H2BK5ac); test: histone acetylation levels by western blot; conditions: 1 and 5 μM, FIG. 9B
Gata2 regulatory regions = test: ChIP-QPCR of histone acetylation at Gata2 regulatory regions; assay type: cell-based
From the text: In chromatin state maps these histone modifications, especially H3K9ac and H3K27ac, have been associated with active regulatory regions, such as enhancers and promoters of actively transcribed genes. The differentiation profile was unaffected by compound treatment and similar to that of cells used in experiments above (FIG. 23B).

[8] = pharmacokinetics of Compound 001 in rats; assay type: in vivo; conditions: rat, plasma, read-out: minimum drug exposure for the entire dosing period
Method: I. A. Rats were dosed once daily by oral gavage for 6 consecutive days at 0 mg/kg, 10 mg/kg, or 30 mg/kg per dose (See FIG. 25A). Dosing days are indicated by a down arrow (FIG. 25A). Peripheral blood was drawn on the indicated days and analyzed for drug level in plasma (PK), complete blood counts (CBC), or isolation of total ribonucleic acid (RNA). C. […] Points are the average of replicate animals, error bars are the standard deviation of replicate animals (FIG. 25C).

HbG mRNA [9] = test: HbG mRNA levels in peripheral blood of monkeys; assay type: in vivo, cynomolgus monkey; conditions: monkey, 25 and 75 mg/kg; FIG. 27C-D
Method: as §1
For each individual monkey, HbG mRNA was expressed relative to HbB mRNA and then normalized to their predose level (time=day 0). Points are the median of n=3 animals with error bars showing the range.

HDAC3 = HDAC3 (Homo sapiens, UniProt O15379); test: in vitro biochemical HDAC inhibition assay
Chain of HDAC3 (O15379 whole entry): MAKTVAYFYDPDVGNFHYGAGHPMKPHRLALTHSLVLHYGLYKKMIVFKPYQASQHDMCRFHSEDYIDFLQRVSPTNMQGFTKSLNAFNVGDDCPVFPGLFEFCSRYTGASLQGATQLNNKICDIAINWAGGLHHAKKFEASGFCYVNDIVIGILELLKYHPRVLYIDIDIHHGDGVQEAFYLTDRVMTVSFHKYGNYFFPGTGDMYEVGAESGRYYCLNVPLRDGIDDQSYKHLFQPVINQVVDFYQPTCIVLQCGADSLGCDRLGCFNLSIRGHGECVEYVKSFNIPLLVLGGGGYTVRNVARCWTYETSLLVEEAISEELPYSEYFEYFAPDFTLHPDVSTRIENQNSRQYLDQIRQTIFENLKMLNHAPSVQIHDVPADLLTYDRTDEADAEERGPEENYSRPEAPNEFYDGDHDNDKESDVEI
Chain of HDAC3 (Q9Y618 395-489 partner limits assumed): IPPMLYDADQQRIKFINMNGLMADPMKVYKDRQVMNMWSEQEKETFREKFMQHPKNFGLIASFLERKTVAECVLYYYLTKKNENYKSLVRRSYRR

For Nc1ccc(-c2cccs2)cc1NC(=O)c1ccc2nc(N3CCNCC3)ccc2c1 [Compound 001, N-(2-amino-5-(thiophen-2-yl)phenyl)-2-(piperazin-1-yl)quinoline-6-carboxamide], the concentration at 5 days ([1]; high dose (75 mg/kg once daily oral gavage, 5 days)) was ≥ 5000 nM, the concentration at 5 days ([1]; low dose (25 mg/kg once daily oral gavage, 5 days)) was ≥ 1000 nM and the RBC or platelets [2] was “no detected affect”. For the same molecule, the “time of peak white blood cell suppression after the last dose” value [2] was 1 days, the “time to recovery of white blood cell counts to baseline after the last dose” value [2] was 5 days and the white blood cells ([2]; 25 or 75 mg/kg for 5 days) was “reversible suppression”. For the same molecule, the “% HbG” value (HbG mRNA [3]; 1 μM, increased from 10%) was 46%, the “induction in % HbG” value (HbG mRNA [3]; differentiation phase, both culture systems, FIG. 10B, 21A-C) was “dose- and time-dependent induction” and the “fold less cytotoxic than Entinostat” value [4] was 10 fold. The pIC50 ([4]; Homo sapiens, 48 h, FIG. 19A) was 4.35, the RBC or platelets [5] was “no detected affect” and the “time of peak white blood cell suppression after the last dose” value [5] was 1 days. For the same molecule, the “time to recovery of white blood cell counts to baseline after the last dose” value [5] was 5 days, the white blood cells ([5]; 10 or 30 mg/kg for 6 days) was “reversible suppression” and the “erythroid differentiation (CD71/GlyA)” value ([6]; by day 8) was “block differentiation of proerythroblasts to basophilic erythroblasts”. The “erythroid differentiation (CD71/GlyA)” value ([6]; first 5 days) was “differentiated normally”, the HbG (sickle donor cells) was “induced HbG” and the pIC50 (HDAC1; Table 2, read-out: IC50 HDAC1) was 8.40. For the same molecule, the pIC50 (HDAC1; pre-incubation time of 24 hours, FIG. 9A, 17B, read-out: IC50 against HDAC1) was 8.15, the “histone acetylation (H3K9/14ac, H3K56, H3K79ac, H2BK5ac)” value [7] was “dose-dependent accumulation of acetylation” and the “increase in histone H3K9, H2BK5, and H3K27 acetylation” value (Gata2 regulatory regions; +9.5 kb and −3.9 kb regions) was 3 fold. For the same molecule, the “increase in histone H3K9, H2BK5, and H3K27 acetylation” value (Gata2 regulatory regions; −1.8 kb and −2.8 kb regulatory regions) was 6 fold, the concentration at 6 days ([8]; high dose (30 mg/kg once daily oral gavage, 6 days)) was ≥ 5000 nM and the concentration at 6 days ([8]; low dose (10 mg/kg once daily oral gavage, 6 days)) was ≥ 1000 nM. The “HbG mRNA relative to HbB mRNA, normalized to predose” value (HbG mRNA [9]) was “dose-dependent increase”, the “selectivity over HDAC3” value (HDAC3) was “approximately 100 fold” and the pIC50 (HDAC3; Table 2, read-out: IC50 HDAC3) was 6.94. For the same molecule, the pIC50 (HDAC3; pre-incubation time of 24 hours, FIG. 9A, 17B, read-out: IC50 against HDAC3) was 5.89.
